O=Cc1ccc(O)c(Br)c1
solubility (mole fraction)
Settings | 278.15 K | 283.15 K | 288.15 K | 293.15 K | 298.15 K | 303.15 K | 308.15 K | 313.15 K | 318.15 K | 323.15 K
in 1,4-dioxane | – | – | 0.016 | 0.0188 | 0.022 | 0.0255 | 0.0297 | 0.0345 | 0.0402 | 0.0471
in DMF | 0.0129 | 0.0148 | 0.0171 | 0.02 | 0.0236 | 0.0275 | 0.0321 | 0.0372 | 0.0426 | 0.0488
in DMSO | – | – | – | 0.0177 | 0.0202 | 0.0235 | 0.0278 | 0.0332 | 0.0396 | 0.0467
in acetonitrile | 0.00714 | 0.00815 | 0.00947 | 0.0111 | 0.013 | 0.0152 | 0.0179 | 0.0207 | 0.0238 | 0.0273
in cyclohexane | – | 0.000283 | 0.000369 | 0.000478 | 0.000609 | 0.000766 | 0.000949 | 0.00115 | 0.00139 | 0.00167
in ethanol | 0.00755 | 0.00852 | 0.00981 | 0.0116 | 0.0137 | 0.0161 | 0.0188 | 0.0219 | 0.0254 | 0.0293
in ethyl acetate | 0.00956 | 0.011 | 0.0127 | 0.015 | 0.0176 | 0.0209 | 0.0244 | 0.0287 | 0.0332 | 0.0384
in ethylene glycol | 0.00584 | 0.00666 | 0.00772 | 0.00903 | 0.0107 | 0.0126 | 0.0149 | 0.0177 | 0.0211 | 0.0252
in isobutanol | 0.00978 | 0.0112 | 0.0131 | 0.0155 | 0.0183 | 0.0215 | 0.0251 | 0.0293 | 0.0336 | 0.0386
in isopropanol | 0.0079 | 0.00892 | 0.0104 | 0.0123 | 0.0144 | 0.0171 | 0.0201 | 0.0235 | 0.0272 | 0.0317
in methanol | 0.00568 | 0.00645 | 0.00751 | 0.00881 | 0.0103 | 0.0121 | 0.0142 | 0.0165 | 0.019 | 0.0221
in n-butanol | 0.0106 | 0.0122 | 0.0144 | 0.0168 | 0.0197 | 0.023 | 0.0269 | 0.0313 | 0.0364 | 0.0423
in n-octanol | 0.012 | 0.0138 | 0.0162 | 0.0192 | 0.0226 | 0.0267 | 0.0314 | 0.0365 | 0.0427 | 0.0498
in n-pentanol | 0.0115 | 0.0132 | 0.0153 | 0.0181 | 0.0215 | 0.0252 | 0.0295 | 0.0343 | 0.0401 | 0.0467
in n-propanol | 0.00865 | 0.01 | 0.0117 | 0.0138 | 0.0162 | 0.0191 | 0.0225 | 0.0264 | 0.0308 | 0.0361
in water | 5.93e-05 | 7.11e-05 | 9.02e-05 | 0.000116 | 0.00015 | 0.000196 | 0.00025 | 0.000314 | 0.000395 | 0.000493

Source: BigSolDB 2.1
